Earlier results on four molecules are cited in patent publication US20140308215A1, “ANTIPERSPIRANT COMPOSITIONS AND METHOD FOR REDUCING PERSPIRATION” (Conopco, Inc., d/b/a Unilever, priority 2011, published 2014).

For this series the following is noted: Hildebrand Solubility Parameter of the liquid carrier.
As to `CCCCC(CC)C(=O)OCC(COC(=O)C(CC)CCCC)OC(=O)C(CC)CCCC` (stereo not shown) [Triethylhexanoin], the HSP was 18.02 (MPa)^0.5.

For the molecule `CCCCCCCCCCCCCC(=O)OC(C)C` [Isopropyl myristate], the HSP is 16.40 (MPa)^0.5.

Regarding `CCCCCCCCCCCCCCCC` [Hexadecane], the HSP is 16.36 (MPa)^0.5.

`CCCCCCCCCCC(CO)CCCCCCCC` (stereo not shown) [Octyl dodecanol]: the HSP was 18.25 (MPa)^0.5.
